Data as given in article PMC5321741, “Arylmethylamino steroids as antiparasitic agents” (Nature Communications, 2017).
pIC50: −log10 of the molar value. Where two headings read alike, the source gives them in different places.

Experiments:
[1] = system: P. falciparum (strain 3D7); test: 72 h 3H-hypoxanthine incorporation assay, asexual blood stages; type: cell-based, Plasmodium falciparum; conditions: Plasmodium falciparum
HUVEC = test: antiproliferative activity on HUVEC cells; type: cell-based; conditions: Homo sapiens, HUVEC, 72 h
Description: (§1) Compounds were tested for their antiproliferative activity on HUVEC and K-562 cells and for cytotoxicity on HeLa cells using standard protocols. K-562 (DSM ACC 10), HUVEC (ATCC CRL-1730), and HeLa (DSM ACC 57) cells were cultured as described previously. To assay the antiproliferative and cytotoxic effect, procedures were carried out as described before. In brief, for each experiment with K-562 and HeLa ∼10,000 cells were seeded per well of the 96-well microplates. For the cytotoxicity assay, the HeLa cells were preincubated for 48 h without the test substances. Cells were incubated for 72 h at 37 °C in a humidified atmosphere and 5% CO2. Suspension cultures of K-562 in microplates were analysed by an electronic cell analyzer system CASY 1 (SCHÄRFE, Reutlingen, Germany). The monolayer of the HUVEC and HeLa cells were fixed by glutaraldehyde (MERCK) and stained with a 0.05% solution of methylene blue (SERVA). After gently washing, the stain was eluted by 0.2 ml of 0.33 N HCl in the wells. The optical densities were measured at 660 nm in a microplate reader. The calculations of the different values of GI50 and CC50 were performed with the software Magellan (TECAN).

K-562 = test: antiproliferative activity on K-562 cells; type: cell-based; conditions: Homo sapiens, K562, 72 h
Description: as §1

[2] = cytotoxicity on HeLa cells; type: cell-based; conditions: human, HeLa cells
Description: as §1

haem = test: ESI-MS collision-induced dissociation of haem adducts; type: binding; conditions: 50 µM haem and 50 µM substrate; for DV50 (dissociation voltage at 50%) of haem adduct: ESI-CID, 20 V to 400 V; for Bottom plateau (adduct remaining at 400 V): fragmentor voltage 400 V
Description: Compound Molar Adduct DV50 Bottom Dissociation mass [Haem+S] (V) plateau Constant
Supplementary Table 7. ESI-MS-CID data (m/z, calculated DV50 = dissociation voltage at 50% and % bottom plateau) of the [haematin-drug]+ adducts and dissociation constants (KD, µM) of the haematin-drug complexes measured with absorption spectrophotometric titrations.
Conditions: 50 µM haem and 50 µM substrate in H2O/CH3CN (5/95) + 0.1% formic acid.
Stability responses of the haem substrate adduct were obtained via ESI-CID experiments.
Positive mode; fragmentor voltage from 20 V to 400 V with 20 V increments. […]
- 41/120 g), and complete dissolution was achieved using an ultrasonic bath. All solutions were protected from daylight to avoid any photochemical degradation. All the physiochemical measurements were carried out at 25.0(2) °C. […]
Electrospray mass spectrometric measurements stopping point
Electrospray mass spectra of the haem complexes were obtained with an Agilent Technologies 6120 quadrupole equipped with an electrospray (ESI) interface. For

[3] = 3D7, 72 h 3H-hypoxanthine incorporation, asexual blood stages, read-out: Antiplasmodial activity IC50 Pf (3D7)
[4] = 3D7, non-steroid-derived analogs, read-out: IC50 on P. falciparum 3D7 asexual blood stages

## CCN(CC)c1ccc(CN[C@H]2CCC3C4CCc5cc(OC)ccc5C4CC[C@@]32C)c(O)c1 (stereo partly shown) [2q]
[1]; [3]
  pIC50: 6.15

## COc1ccc2c(c1)CCC1C2CC[C@@]2(C)C1C[C@H](NCc1cc(C(C)(C)C)cc(C(C)(C)C)c1O)[C@H]2O (stereo partly shown) [6w]
[1]; [3]
  pIC50: 5.79

## COc1ccc2c(c1)CCC1C2CC[C@]2(C)C[C@H](N)CC12 (stereo partly shown) [3a]
[1]; [3]
  pIC50: < 6.00

## COc1ccc2c(c1)CCC1C2CC[C@]2(C)C1C[C@@H](NCc1ccccc1O)[C@@H]2O (stereo partly shown) [10c]
[1]; [3]
  pIC50: 7.08
HUVEC
  GI50: 2.9 µM
K-562
  GI50: 2500 nM
[2]
  CC50 at 72 h: 11.5 µM

## COc1ccc2c(c1)CCC1C2CCC2(C)C(NCc3ccccc3OC)CCC12 (stereo not shown) [1i]
[1]; [3]
  pIC50: 6.06

## Oc1ccccc1/C=N/c1ccc2ccc3cccc4ccc1c2c34 [20b]
[1]; [3]
  pIC50: < 4.82

## COc1ccc2c(c1)CCC1C2CCC2(C)C(NCc3cccc(O)c3)CCC12 (stereo not shown) [1e]
[1]; [3]
  pIC50: 6.36

## C=CC1=C(C)c2cc3[n-]c(cc4[n-]c(cc5nc(cc1n2)C(C)=C5C=C)c(C)c4CCC(=O)O)c(CCC(=O)O)c3C.O.[Fe+2] [hematin, reference compound]
haem
  DV50 (dissociation voltage at 50%) of haem adduct: 329 V
  Bottom plateau (adduct remaining at 400 V): ~ 28%

## CC(C)CCC[C@@H](C)[C@H]1CCC2C3CCC4C[C@@H](O)[C@@H](O)[C@H](NCc5ccccc5O)[C@]4(C)C3CC[C@@]21C (stereo partly shown) [12c]
[1]; [3]
  pIC50: 5.36
HUVEC
  GI50: 12.4 µM
K-562
  GI50: 16500 nM
[2]
  CC50 at 72 h: 38 µM

## COc1ccc2c(c1)CCC1C2CC[C@]2(C)C1CC(NCc1ccccc1O)[C@@H]2O (stereo partly shown) [9c]
[1]; [3]
  pIC50: 6.00
HUVEC
  GI50: 11.2 µM
K-562
  GI50: 8400 nM
[2]
  CC50 at 72 h: 48.8 µM

## Oc1ccccc1CNc1ccccc1 [19c]
[1]; [4]
  pIC50: < 4.82

## Oc1ccccc1CNC12CC3CC(CC(C3)C1)C2 [18c]
[1]; [4]
  pIC50: 5.40

## Oc1ccccc1CNC1CCCCC1 [16c]
[1]; [4]
  pIC50: < 5.22

## COc1ccc2c(c1)CCC1C2CC[C@]2(C)C[C@@H](NCc3ccccc3O)CC12 (stereo partly shown) [4c]
[1]; [3]
  pIC50: 7.20
HUVEC
  GI50: 3.1 µM
K-562
  GI50: 2600 nM
[2]
  CC50 at 72 h: 12 µM

## COc1ccc2c(c1)CCC1C2CC[C@@]2(C)C1CC[C@@H]2NCc1cccc(O)c1 (stereo partly shown) [2e]
[1]; [3]
  pIC50: 6.13

## COc1ccc2c(c1)CCC1C2CC[C@@]2(C)C1C[C@@H](NCc1cc(Cl)ccc1O)[C@H]2O (stereo partly shown) [5s]
[1]; [3]
  pIC50: 7.00

## Oc1cc2ccccc2cc1CNc1ccc2ccc3cccc4ccc1c2c34 [20o]
[1]; [3]
  pIC50: < 4.89

## COc1ccc2c(c1)CCC1C2CC[C@@]2(C)C1CC[C@@H]2NCc1cc(Cl)ccc1O (stereo partly shown) [2s]
[1]; [3]
  pIC50: 7.21

## COc1ccc2c(c1)CCC1C2CC[C@@]2(C)C1CC[C@@H]2/N=C/c1ccccc1O (stereo partly shown) [2b]
[1]; [3]
  pIC50: < 5.60

## COc1ccc2c(c1)CCC1C2CC[C@@]2(C)C1C[C@H](/N=C/c1ccccc1O)[C@@H]2O (stereo partly shown) [8b]
[1]; [3]
  pIC50: < 5.60

## COc1ccc2c(c1)CCC1C2CC[C@@]2(C)C1CC[C@@H]2NCc1c(O)ccc2ccccc12 (stereo partly shown) [2m]
[1]; [3]
  pIC50: 6.74

## COc1ccc2c(c1)CCC1C2CC[C@@]2(C)C1C[C@@H](NCc1ccccc1O)[C@@H]2O (stereo partly shown) [7c]
[1]; [3]
  pIC50: 6.92
HUVEC
  GI50: 1.2 µM
K-562
  GI50: 2000 nM
[2]
  CC50 at 72 h: 10.1 µM

## COc1ccc2c(c1)CCC1C2CC[C@@]2(C)C1CC[C@H]2/N=C/c1ccccc1O (stereo partly shown) [1b]
[1]; [3]
  pIC50: < 5.60

## CCN(CC)c1ccc(/C=N/[C@H]2CCC3C4CCc5cc(OC)ccc5C4CC[C@@]32C)c(O)c1 (stereo partly shown) [2p]
[1]; [3]
  pIC50: < 5.30

## COc1ccc2c(c1)CCC1C2CC[C@@]2(C)C1CC[C@H]2NCc1cc(Cl)ccc1O (stereo partly shown) [1s]
[1]; [3]
  pIC50: 7.96

## COc1ccc2c(c1)CCC1C2CC[C@@]2(C)C1CC[C@H]2N (stereo partly shown) [1a]
[1]; [3]
  pIC50: < 6.00
haem
  DV50 (dissociation voltage at 50%) of haem adduct: 218 V
  Bottom plateau (adduct remaining at 400 V): 1.2%

## Oc1cc2ccccc2cc1/C=N/c1ccc2ccc3cccc4ccc1c2c34 [20n]
[1]; [3]
  pIC50: < 4.89

## Oc1ccccc1CNC1CCCC1 [15c]
[1]; [4]
  pIC50: < 5.22

## COc1ccc2c(c1)CCC1C2CC[C@@]2(C)C1CC[C@@H]2/N=C/c1cc2ccccc2cc1O (stereo partly shown) [2n]
[1]; [3]
  pIC50: 5.26

## Oc1ccccc1CNC1CCCCCCC1 [17c]
[1]; [3]
  pIC50: 5.70
[1]; [4]
  pIC50: ~5.70

## COc1ccc2c(c1)CCC1C2CC[C@@]2(C)C1C[C@@H](NCc1cc(Cl)ccc1O)[C@@H]2O (stereo partly shown) [7s]
[1]; [3]
  pIC50: 7.26

## COc1ccc2c(c1)CCC1C2CCC2(C)C(NCc3ccc(O)cc3)CCC12 (stereo not shown) [1g]
[1]; [3]
  pIC50: 6.94

## COc1ccc(CNC2CCC3C4CCc5cc(OC)ccc5C4CCC23C)cc1 (stereo not shown) [1k]
[1]; [3]
  pIC50: 6.00

## COc1ccc2c(c1)CCC1C2CC[C@]2(C)C[C@@H](N)CC12 (stereo partly shown) [4a]
[1]; [3]
  pIC50: < 6.00

## CCN(CC)Cc1cc(Nc2ccnc3cc(Cl)ccc23)ccc1O [amodiaquine, reference compound]
haem
  DV50 (dissociation voltage at 50%) of haem adduct: 212 V
  Bottom plateau (adduct remaining at 400 V): 7%

## COc1ccc2c(c1)CCC1C2CC[C@]2(C)C1C[C@H](NCc1ccccc1O)[C@@H]2O (stereo partly shown) [11c]
[1]; [3]
  pIC50: 6.85
HUVEC
  GI50: 22 µM
K-562
  GI50: 100 nM
[2]
  CC50 at 72 h: 6.4 µM

## COc1ccc2c(c1)CCC1C2CC[C@@]2(C)C1C[C@H](NCc1ccccc1O)[C@@H]2O (stereo partly shown) [8c]
[1]; [3]
  pIC50: 6.65
HUVEC
  GI50: 2.5 µM
K-562
  GI50: 500 nM
[2]
  CC50 at 72 h: 5.9 µM

## COc1ccc2c(c1)CCC1C2CC[C@@]2(C)C1C[C@@H](NCc1ccccc1O)[C@H]2O (stereo partly shown) [5c]
[1]; [3]
  pIC50: 6.80
HUVEC
  GI50: 2.2 µM
K-562
  GI50: 2000 nM
[2]
  CC50 at 72 h: 11.3 µM

## COc1ccc2c(c1)CCC1C2CC[C@@]2(C)C1C[C@H](NCc1ccccc1O)[C@H]2O (stereo partly shown) [6c]
[1]; [3]
  pIC50: 6.17
HUVEC
  GI50: 4.4 µM
K-562
  GI50: 2500 nM
[2]
  CC50 at 72 h: 11.3 µM

## COc1ccc2c(c1)CCC1C2CC[C@@]2(C)C1CC[C@@H]2NCc1cc([N+](=O)[O-])ccc1O (stereo partly shown) [2u]
[1]; [3]
  pIC50: 6.94

## COc1ccc2c(c1)CCC1C2CC[C@]2(C)C[C@H](NCc3ccccc3O)CC12 (stereo partly shown) [3c]
[1]; [3]
  pIC50: 7.38
HUVEC
  GI50: 4.1 µM
K-562
  GI50: 3800 nM
[2]
  CC50 at 72 h: 20.7 µM

## COc1ccc2c(c1)CCC1C2CC[C@@]2(C)C1CC[C@@H]2N (stereo partly shown) [2a]
[1]; [3]
  pIC50: < 6.00
haem
  DV50 (dissociation voltage at 50%) of haem adduct: 210 V
  Bottom plateau (adduct remaining at 400 V): 1.8%
